Results as given in paper PMC3254236 (Bioorganic & Medicinal Chemistry, 2011).
pEC50: −log10 of the molar value.

Target: T1, full length murine FXR (Mus musculus, UniProt Q60641)
T1 sequence (Q60641 1-488): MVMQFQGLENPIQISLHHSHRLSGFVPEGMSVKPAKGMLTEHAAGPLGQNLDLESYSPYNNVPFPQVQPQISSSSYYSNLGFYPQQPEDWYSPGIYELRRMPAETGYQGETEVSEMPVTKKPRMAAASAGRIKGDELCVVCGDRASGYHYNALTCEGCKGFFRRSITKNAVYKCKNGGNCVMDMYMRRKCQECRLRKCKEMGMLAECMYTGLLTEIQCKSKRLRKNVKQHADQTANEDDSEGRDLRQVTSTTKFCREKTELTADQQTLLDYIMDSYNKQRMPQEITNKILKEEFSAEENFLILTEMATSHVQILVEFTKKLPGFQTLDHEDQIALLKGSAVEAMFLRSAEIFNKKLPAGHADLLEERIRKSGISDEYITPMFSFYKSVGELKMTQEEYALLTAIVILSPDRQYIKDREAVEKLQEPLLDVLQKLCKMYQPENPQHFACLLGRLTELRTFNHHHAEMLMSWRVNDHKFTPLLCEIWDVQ
T1 sequence (P28700 1-467 partner): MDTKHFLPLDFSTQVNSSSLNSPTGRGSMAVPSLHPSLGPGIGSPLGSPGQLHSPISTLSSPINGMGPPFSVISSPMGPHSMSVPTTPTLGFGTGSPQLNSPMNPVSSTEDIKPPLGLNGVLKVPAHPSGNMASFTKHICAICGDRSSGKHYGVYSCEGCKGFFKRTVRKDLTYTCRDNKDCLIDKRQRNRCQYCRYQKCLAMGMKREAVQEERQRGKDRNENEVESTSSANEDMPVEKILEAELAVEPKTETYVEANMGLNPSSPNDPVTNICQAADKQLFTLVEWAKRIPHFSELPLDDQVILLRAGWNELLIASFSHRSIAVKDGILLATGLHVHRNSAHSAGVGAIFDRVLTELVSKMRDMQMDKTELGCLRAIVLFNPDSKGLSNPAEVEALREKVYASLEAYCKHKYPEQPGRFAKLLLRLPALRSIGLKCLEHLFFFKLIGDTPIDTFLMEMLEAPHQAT
Experiment: Reporter gene assay for FXR activation
Format: cell-based
Conditions: for Induction of FXR-dependent transcription: Ganoderma constituents 10 μM, normalized to CDCA 25 μM; for FXR induction (percent of CDCA): pure compounds 10 μg/mL, compared with CDCA 25 μM

Compound	Induction of FXR-dependent transcription	pEC50 (dose-dependent FXR reporter activation, test concentrations 0.1-50 μM)	FXR induction (percent of CDCA)
CC(C)[C@@H](C)/C=C/[C@@H](C)[C@H]1CC[C@@H]2[C@]1(C)CC[C@H]1[C@]23C=C[C@]2(C[C@@H](O)CC[C@]12C)OO3 [Compound 2, ergosterol peroxide]	reached statistical significance		
C[C@H](CC[C@H](O)C(C)(C)O)[C@H]1CC[C@@]2(C)C3=C(CC[C@]12C)[C@@]1(C)CCC(=O)C(C)(C)[C@@H]1CC3=O [Compound 11, lucidumol A]	reached statistical significance		
COc1ccc(-c2oc3cc(OC)c(OC)c(O)c3c(=O)c2OC)cc1OC [artemisetin]			activated FXR significantly, but at lower extent than CDCA
COc1cc(CNC(=O)CCCCCCC(C)C)ccc1O [dihydrocapsaicin]			No activation
C=CC(C)(C)c1cc2cc3c(cc2oc1=O)OC(C(C)(C)OC(C)=O)C3 (stereo not drawn) [rutamarin]			activated FXR significantly, but at lower extent than CDCA

The next lines start with results.

Induction of FXR-dependent transcription	pEC50 (dose-dependent FXR reporter activation, test concentrations 0.1-50 μM)	Compound	FXR induction (percent of CDCA)
reached statistical significance		C[C@H](CC[C@H](O)[C@](C)(O)CO)[C@H]1CC[C@@]2(C)C3=CC[C@H]4C(C)(C)C(=O)CC[C@]4(C)C3=CC[C@]12C [Compound 13, ganodermanontriol]	
reached statistical significance		C[C@H](CCC=C(CO)CO)[C@H]1CC[C@@]2(C)C3=CC[C@H]4C(C)(C)C(=O)CC[C@]4(C)C3=CC[C@]12C [Compound 14, ganoderiol F]	
reached statistical significance	< 4.85	ganoderic acid TR [Compound 12]	
